Measured values taken from patent publication US12655116B2, “Substituted isophthalic acid diamides” (Bayer Aktiengesellschaft, priority 2020, dated 2026).

Assays:
ABUTH [1] = assay: Pre-emergence herbicidal action against ABUTH; format: in vivo, Abutilon theophrasti; conditions: for Pre-emergence action against ABUTH (herbicidal activity): 80 g/ha, scored visually after 3 weeks vs untreated controls (100% = plants have died, 0% = like control plants); for Pre-emergence action against ABUTH (herbicidal activity in percent): dosage 20 g/ha, scored visually after 3 weeks vs untreated controls, 100% = plants have died, 0% = like control plants
Outline: (§1)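 Sandy loam pots, seeds covered with soil, then surface-treated with WP or EC formulations at 600–800 l/ha water plus 0.2% wetting agent. Greenhouse, 3 weeks. Percent damage vs untreated controls.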

ALOMY [2] = assay: Pre-emergence herbicidal action against ALOMY; format: in vivo, Alopecurus myosuroides; conditions: 80 g/ha, pre-emergence, scored visually after 3 weeks vs untreated controls (100% = plants have died, 0% = like control plants)
Outline: as §1

AMARE [3] = assay: Pre-emergence herbicidal action against AMARE; format: in vivo, Amaranthus retroflexus
Outline: as §1

AVEFA [4] = assay: Pre-emergence herbicidal action against AVEFA; format: in vivo, Avena fatua; conditions: 80 g/ha, pre-emergence
Outline: as §1

ECHCG [5] = assay: Pre-emergence herbicidal action against ECHCG; format: in vivo, Echinochloa crus-galli
Outline: as §1

HORMU [6] = assay: Pre-emergence herbicidal action against HORMU; format: in vivo, Hordeum murinum; conditions: 80 g/ha, pre-emergence
Outline: as §1

LOLRI = assay: Pre-emergence herbicidal action against LOLRI; format: in vivo, Lolium rigidum; conditions: 80 g/ha
Outline: as §1

MATIN [7] = assay: Pre-emergence herbicidal action against MATIN; format: in vivo, Matricaria inodora
Outline: as §1

PHBPU [8] = assay: Pre-emergence herbicidal action against PHBPU; format: in vivo, Pharbitis purpurea; conditions: dosage 80 g/ha
Outline: as §1

POLCO = assay: Pre-emergence herbicidal action against POLCO; format: in vivo, Polygonum convolvulus; conditions: dosage 80 g/ha
Outline: as §1

SETVI [9] = assay: Pre-emergence herbicidal action against SETVI; format: in vivo, Setaria viridis; conditions: dosage 80 g/ha
Outline: as §1

STEME [10] = assay: Pre-emergence herbicidal action against STEME; format: in vivo, Stellaria media
Outline: as §1

VERPE [11] = assay: Pre-emergence herbicidal action against VERPE; format: in vivo, Veronica persica; conditions: dosage 80 g/ha
Outline: as §1

VIOTR [12] = assay: Pre-emergence herbicidal action against VIOTR; format: in vivo, Viola tricolor
Outline: as §1

DIGSA [13] = assay: Pre-emergence herbicidal action against DIGSA; format: in vivo, Digitaria sanguinalis
Outline: as §1

ABUTH [14] = assay: Post-emergence herbicidal action against ABUTH; format: in vivo, Abutilon theophrasti; conditions: visual assessment about 3 weeks after treatment vs untreated controls
Outline: (§2)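 Visual % rating (0% = as untreated, 100% = dead) ~3 wk after spraying one-leaf-stage plants grown in sandy loam; WP/EC in water at 600–800 l/ha, 0.2% wetting agent.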

ALOMY [15] = assay: Post-emergence herbicidal action against ALOMY; format: in vivo, Alopecurus myosuroides; conditions: dosage 20 g/ha, visual assessment about 3 weeks after treatment vs untreated controls
Outline: as §2

AMARE [16] = assay: Post-emergence herbicidal action against AMARE; format: in vivo, Amaranthus retroflexus; conditions: 20 g/ha, visual assessment about 3 weeks after treatment, 100% = plants have died, 0% = like control plants
Outline: as §2

ECHCG [17] = assay: Post-emergence herbicidal action against ECHCG; format: in vivo, Echinochloa crus-galli
Outline: as §2

HORMU [18] = assay: Post-emergence herbicidal action against HORMU; format: in vivo, Hordeum murinum; conditions: dosage 20 g/ha
Outline: as §2

MATIN [19] = assay: Post-emergence herbicidal action against MATIN; format: in vivo, Matricaria inodora
Outline: as §2

PHBPU [20] = assay: Post-emergence herbicidal action against PHBPU; format: in vivo, Pharbitis purpurea
Outline: as §2

STEME [21] = assay: Post-emergence herbicidal action against STEME; format: in vivo, Stellaria media
Outline: as §2

VERPE [22] = assay: Post-emergence herbicidal action against VERPE; format: in vivo, Veronica persica
Outline: as §2

VIOTR [23] = assay: Post-emergence herbicidal action against VIOTR; format: in vivo, Viola tricolor
Outline: as §2

AVEFA [24] = assay: Post-emergence herbicidal action against AVEFA; format: in vivo, Avena fatua; conditions: 20 g/ha, visual assessment about 3 weeks after treatment, 100% = plants have died, 0% = like control plants
Outline: as §2

SETVI [25] = assay: Post-emergence herbicidal action against SETVI; format: in vivo, Setaria viridis
Outline: as §2

DIGSA [26] = assay: Post-emergence herbicidal action against DIGSA; format: in vivo, Digitaria sanguinalis
Outline: as §2

[27] = 20 g/ha, scored visually after 3 weeks vs untreated controls, 100% = plants have died, 0% = like control plants
[28] = 80 g/ha, scored visually after 3 weeks vs untreated controls (100% = plants have died, 0% = like control plants)

SMILES: CCn1nnnc1NC(=O)c1ccc(C(F)F)c(C(=O)NC2CC2)c1C [Example 2-46]
- Pre-emergence action against ABUTH (herbicidal activity) (ABUTH [1]): 100%
- Pre-emergence action against ABUTH (herbicidal activity in percent) (ABUTH [1]): 100%
- Pre-emergence action against ALOMY (herbicidal activity) (ALOMY [2]): 100%
- Pre-emergence action against AMARE in % (AMARE [3]; [27]): 100%
- Pre-emergence action against AMARE in % (AMARE [3]; [28]): 100%
- Pre-emergence action against AVEFA in % (AVEFA [4]): 100%
- Pre-emergence action against ECHCG in % (ECHCG [5]; 80 g/ha): 90%
- Pre-emergence action against HORMU in % (HORMU [6]): 90%
- Pre-emergence action against LOLRI in % (LOLRI): 90%
- Pre-emergence action against MATIN in % (MATIN [7]; dosage 20 g/ha): 90%
- Pre-emergence action against MATIN in % (MATIN [7]; dosage 80 g/ha): 100%
- Pre-emergence action against PHBPU in % (PHBPU [8]): 90%
- Pre-emergence action against POLCO in % (POLCO): 90%
- Pre-emergence action against SETVI in % (SETVI [9]): 100%
- Pre-emergence action against STEME in % (STEME [10]; dosage 20 g/ha): 90%
- Pre-emergence action against STEME in % (STEME [10]; dosage 80 g/ha): 100%
- Pre-emergence action against VERPE in % (VERPE [11]): 90%
- Pre-emergence action against VIOTR in % (VIOTR [12]; dosage 20 g/ha): 100%
- Pre-emergence action against VIOTR in % (VIOTR [12]; dosage 80 g/ha): 100%
- Pre-emergence action against DIGSA in % (DIGSA [13]; dosage 20 g/ha): 100%
- Pre-emergence action against DIGSA in % (DIGSA [13]; dosage 80 g/ha): 100%
- Post-emergence action against ABUTH in % (ABUTH [14]; dosage 5 g/ha): 80%
- Post-emergence action against ABUTH in % (ABUTH [14]; dosage 20 g/ha): 80%
- Post-emergence action against ALOMY in % (ALOMY [15]): 80%
- Post-emergence action at 20 g/ha against AMARE in % (AMARE [16]): 100%
- Post-emergence action against ECHCG in % (ECHCG [17]; dosage 20 g/ha): 80%
- Post-emergence action against HORMU in % (HORMU [18]): 80%
- Post-emergence action against MATIN in % (MATIN [19]; dosage 20 g/ha): 80%
- Post-emergence action against PHBPU in % (PHBPU [20]; dosage 20 g/ha): 80%
- Post-emergence action against STEME in % (STEME [21]; 20 g/ha): 80%
- Post-emergence action against STEME in % (STEME [21]; dosage 5 g/ha): 80%
- Post-emergence action against VERPE in % (VERPE [22]; 5 g/ha): 80%
- Post-emergence action against VERPE in % (VERPE [22]; 20 g/ha): 80%
- Post-emergence action against VIOTR in % (VIOTR [23]; 5 g/ha): 80%
- Post-emergence action against VIOTR in % (VIOTR [23]; 20 g/ha): 80%

SMILES: CCn1nnnc1NC(=O)c1ccc(C(F)F)c(C(=O)NC)c1SC [Example 2-87]
- Pre-emergence action against ABUTH (herbicidal activity) (ABUTH [1]): 100%
- Pre-emergence action against ABUTH (herbicidal activity in percent) (ABUTH [1]): 100%
- Pre-emergence action against ALOMY (herbicidal activity) (ALOMY [2]): 80%
- Pre-emergence action against AMARE in % (AMARE [3]; [27]): 100%
- Pre-emergence action against AMARE in % (AMARE [3]; [28]): 100%
- Pre-emergence action against AVEFA in % (AVEFA [4]): 90%
- Pre-emergence action against ECHCG in % (ECHCG [5]; 20 g/ha): 80%
- Pre-emergence action against ECHCG in % (ECHCG [5]; 80 g/ha): 100%
- Pre-emergence action against HORMU in % (HORMU [6]): 80%
- Pre-emergence action against LOLRI in % (LOLRI): 80%
- Pre-emergence action against MATIN in % (MATIN [7]; dosage 20 g/ha): 90%
- Pre-emergence action against MATIN in % (MATIN [7]; dosage 80 g/ha): 90%
- Pre-emergence action against PHBPU in % (PHBPU [8]): 80%
- Pre-emergence action against SETVI in % (SETVI [9]): 100%
- Pre-emergence action against STEME in % (STEME [10]; dosage 20 g/ha): 100%
- Pre-emergence action against STEME in % (STEME [10]; dosage 80 g/ha): 100%
- Pre-emergence action against VERPE in % (VERPE [11]): 90%
- Pre-emergence action against VIOTR in % (VIOTR [12]; dosage 20 g/ha): 90%
- Pre-emergence action against VIOTR in % (VIOTR [12]; dosage 80 g/ha): 90%
- Pre-emergence action against DIGSA in % (DIGSA [13]; dosage 20 g/ha): 100%
- Pre-emergence action against DIGSA in % (DIGSA [13]; dosage 80 g/ha): 100%
- Post-emergence action against ABUTH in % (ABUTH [14]; dosage 5 g/ha): 90%
- Post-emergence action against ABUTH in % (ABUTH [14]; dosage 20 g/ha): 90%
- Post-emergence action against ALOMY in % (ALOMY [15]): 80%
- Post-emergence action at 20 g/ha against AMARE in % (AMARE [16]): 90%
- Post-emergence action at 20 g/ha against AVEFA in % (AVEFA [24]): 80%
- Post-emergence action against ECHCG in % (ECHCG [17]; dosage 5 g/ha): 80%
- Post-emergence action against ECHCG in % (ECHCG [17]; dosage 20 g/ha): 80%
- Post-emergence action against HORMU in % (HORMU [18]): 80%
- Post-emergence action against MATIN in % (MATIN [19]; dosage 5 g/ha): 80%
- Post-emergence action against MATIN in % (MATIN [19]; dosage 20 g/ha): 90%
- Post-emergence action against PHBPU in % (PHBPU [20]; dosage 5 g/ha): 80%
- Post-emergence action against PHBPU in % (PHBPU [20]; dosage 20 g/ha): 80%
- Post-emergence action against SETVI in % (SETVI [25]; dosage 5 g/ha): 80%
- Post-emergence action against SETVI in % (SETVI [25]; dosage 20 g/ha): 80%
- Post-emergence action against STEME in % (STEME [21]; 20 g/ha): 90%
- Post-emergence action against STEME in % (STEME [21]; dosage 5 g/ha): 80%
- Post-emergence action against VERPE in % (VERPE [22]; 20 g/ha): 80%
- Post-emergence action against VIOTR in % (VIOTR [23]; 20 g/ha): 100%
- Post-emergence action against DIGSA in % (DIGSA [26]; 5 g/ha): 90%
- Post-emergence action against DIGSA (DIGSA [26]; 20 g/ha): 90%
